According to patent US20230183243A1, “HETEROARYL DERIVATIVES AND PHARMACEUTICAL COMPOSITION COMPRISING SAME AS ACTIVE INGREDIENT” (VORONOI INC., priority 2019, published 2023):

Key:
SHP-77 = assay: Inhibition of proliferation of small cell lung cancer cells, CellTiter-Glo; type: cell-based; conditions: Homo sapiens, SHP77, 120 h; SHP-77, cultured for 5 days
Outline: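 SHP-77 cells at 2,000–3,000 cells/well, cultured 24 h at 37° C, 5% CO2, then given 12 threefold compound dilutions, final 10 μM to 0.05 nM, for 5 days. Viability by CellTiter-Glo luminescence relative to solvent control. GI50 from concentration–response.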

TTK = molecular target: T1, TTK (Homo sapiens, UniProt P33981); assay: TTK enzyme activity, ADP-Glo kinase assay; type: biochemical; parameters: purchased SignalChem T20-10G; conditions: purified human TTK, ATP 10 μM, 25° C., 2 hours
T1 sequence (P33981 1-857): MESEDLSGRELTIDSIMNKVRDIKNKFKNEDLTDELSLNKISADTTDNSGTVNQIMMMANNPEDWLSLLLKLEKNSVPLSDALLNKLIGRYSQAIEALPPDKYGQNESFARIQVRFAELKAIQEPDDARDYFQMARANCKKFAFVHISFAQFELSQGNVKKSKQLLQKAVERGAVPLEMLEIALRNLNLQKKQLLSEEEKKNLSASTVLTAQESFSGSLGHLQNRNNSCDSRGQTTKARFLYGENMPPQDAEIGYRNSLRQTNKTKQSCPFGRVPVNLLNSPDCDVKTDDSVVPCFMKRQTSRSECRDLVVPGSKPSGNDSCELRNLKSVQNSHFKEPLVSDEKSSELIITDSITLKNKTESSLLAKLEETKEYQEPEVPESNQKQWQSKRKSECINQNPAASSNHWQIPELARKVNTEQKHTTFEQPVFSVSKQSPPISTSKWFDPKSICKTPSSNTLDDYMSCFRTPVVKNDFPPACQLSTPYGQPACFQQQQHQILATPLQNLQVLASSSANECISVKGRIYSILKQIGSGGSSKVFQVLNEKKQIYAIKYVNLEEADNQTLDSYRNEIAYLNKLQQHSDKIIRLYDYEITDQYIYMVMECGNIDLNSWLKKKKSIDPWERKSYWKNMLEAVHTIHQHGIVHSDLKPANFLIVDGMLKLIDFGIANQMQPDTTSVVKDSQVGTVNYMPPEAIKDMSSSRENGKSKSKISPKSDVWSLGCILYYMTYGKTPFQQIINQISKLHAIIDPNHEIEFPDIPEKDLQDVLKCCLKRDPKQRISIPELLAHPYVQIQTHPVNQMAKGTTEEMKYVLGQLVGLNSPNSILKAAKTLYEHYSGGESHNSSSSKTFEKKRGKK
Outline: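 Purified human TTK (25 ng) incubated with 10 μM ATP and substrate (0.2 μg) for 2 h at 25 °C in Tris-HCl pH 7.4, MgCl2, BSA, DTT buffer. ADP formation read by ADP-Glo; inhibition calculated against untreated solvent control.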

MDA-MB-231 cells = assay: Inhibition of proliferation of triple-negative breast cancer cells, CellTiter-Glo; type: cell-based; conditions: Homo sapiens, 120 h; MDA-MB-231, cultured for 5 days
Outline: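 MDA-MB-231 cells pre-cultured 24 h (5% CO2, 37 °C), then exposed to compound for 5 days at 12 three-fold dilutions, final 10 μM to 0.05 nM. Viability read by CellTiter-Glo luminescence after 10 min at 37 °C; growth inhibition calculated relative to untreated solvent-control cells.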

Compound	GI50 (SHP-77)	IC50 (TTK)	GI50 (MDA-MB-231 cells)
COc1cc(-c2ccnn2C)ccc1Nc1nc(NC2CCCC2)c2c(Cl)c[nH]c2n1 [Example 127, 5-chloro-N^4-cyclopentyl-N^2-(2-methoxy-4-(1-methyl-1H-pyrazol-5-yl)phenyl)-7H-pyrrolo[2,3-d] pyrimidine-2,4-diamine]	< 100 nM	50 to 200 nM	< 100 nM
Cn1nccc1-c1ccc(Nc2nc(C3=CCCCC3)c3c(C#N)c[nH]c3n2)c2c1OCCO2 [Example 130, 4-(cyclohex-1-en-1-yl)-2-((8-(1-methyl-1H-pyrazol-5-yl)-2,3-dihydrobenzo[b][1,4]dioxin-5-yl)amino)-7H-pyrrolo[2,3-d] pyrimidine-5-carbonitrile]	100 to 1000 nM	50 to 200 nM	100 to 1000 nM
COc1cc(-c2c(C)noc2C)ccc1Nc1nc(NC2CCOCC2)c2c(C(F)(F)F)c[nH]c2n1 [Example 131, N^2-(4-(3,5-dimethylisoxazol-4-yl)-2-methoxyphenyl)-N^4-(tetrahydro-2H-pyran-4-yl)-5-(trifluoromethyl)-7H-pyrrolo[2,3-d] pyrimidine-2,4-diamine]	< 100 nM	50 to 200 nM	< 100 nM
COc1cc(-c2ccccc2)ccc1Nc1nc(NC2CCOCC2)c2c(C#N)c[nH]c2n1 [Example 134, 2-((3-methoxy-[1,1 biphenyl]-4-yl)amino)-4-((tetrahydro-2H-pyran-4-yl)amino)-7H-pyrrolo[2,3-d] pyrimidine-5-carbonitrile]	< 100 nM	< 50 nM	< 100 nM
COc1cc(Nc2nc(NC3CCCCC3)c3c(C#N)c[nH]c3n2)ccc1-c1cnn(C)c1 [Example 137, 4-(cyclohexylamino)-2-((3-methoxy-4-(1-methyl-1H-pyrazol-4-yl)phenyl)amino)-7H-pyrrolo[2,3-d] pyrimidine-5-carbonitrile]	< 100 nM	50 to 200 nM	< 100 nM
COc1cc(Nc2nc(NC3CCCC3)c3c(C#N)c[nH]c3n2)ccc1-c1c(C)noc1C [Example 139, 4-(cyclopentylamino)-2-((4-(3,5-dimethylisoxazol-4-yl)-3-methoxyphenyl)amino)-7H-pyrrolo[2,3-d] pyrimidine-5-carbonitrile]	< 100 nM	200 to 1000 nM	100 to 1000 nM
COc1cc(Nc2nc(NC3CCCCC3)c3c(C#N)c[nH]c3n2)ccc1-c1c(C)noc1C [Example 140, 4-(cyclohexylamino)-2-((4-(3,5-dimethylisoxazol-4-yl)-3-methoxyphenyl)amino)-7H-pyrrolo[2,3-d] pyrimidine-5-carbonitrile]	< 100 nM	200 to 1000 nM	< 100 nM
C=CC(=O)Nc1cc(-c2ccnn2C)ccc1Nc1nc(NC2CCCC2)c2c(C#N)c[nH]c2n1 [Example 142, N-(2-((5-cyano-4-(cyclopentylamino)-7H-pyrrolo[2,3-d]pyrimidin-2-yl)amino)-5-(1-methyl-1H-pyrazol-5-yl)phenyl)acrylamide]	100 to 1000 nM	< 50 nM	100 to 1000 nM
Cn1cc(-c2ccc(Nc3nc(NC4CCOC(C)(C)C4)c4c(C#N)c[nH]c4n3)c3c2OCCO3)cn1 (stereo not drawn) [Example 145, 4-((2,2-dimethyltetrahydro-2H-pyran-4-yl)amino)-2-((8-(1-methyl-1H-pyrazol-4-yl)-2,3-dihydrobenzo[b][1,4]dioxin-5-yl)amino)-7H-pyrrolo[2,3-d] pyrimidine-5-carbonitrile]	< 100 nM	< 50 nM	< 100 nM
Cn1cc(-c2ccc(Nc3nc(NC4C[C@H]5CC[C@@H]4C5)c4c(C#N)c[nH]c4n3)c3c2OCCO3)cn1 (stereo partly drawn) [Example 147, 4-(((1R,4S)-bicyclo[2.2.1]heptan-2-yl)amino)-2-((8-(1-methyl-1H-pyrazol-4-yl)-2,3-dihydrobenzo[b][1,4]dioxin-5-yl)amino)-7H-pyrrolo[2,3-d] pyrimidine-5-carbonitrile]	< 100 nM	< 50 nM	< 100 nM
N#Cc1c[nH]c2nc(Nc3ccc(N4CCCC4=O)c4c3OCCO4)nc(NC3C[C@H]4CC[C@@H]3C4)c12 (stereo partly drawn) [Example 148, 4-(((1R,4S)-bicyclo[2.2.1]heptan-2-yl)amino)-2-((8-(2-oxopyrrolidin-1-yl)-2,3-dihydrobenzo[b][1,4]dioxin-5-yl)amino)-7H-pyrrolo[2,3-d] pyrimidine-5-carbonitrile]	< 100 nM	< 50 nM	< 100 nM

Now from value to compound:

GI50 (SHP-77)	IC50 (TTK)	GI50 (MDA-MB-231 cells)	Compound
< 100 nM	50 to 200 nM	100 to 1000 nM	Cn1nccc1-c1ccc(Nc2nc(NC3CCCC3)c3c(Cl)c[nH]c3n2)c2c1OCCO2 [Example 128, 5-chloro-N^4-cyclopentyl-N^2-(8-(1-methyl-1H-pyrazol-5-yl)-2,3-dihydrobenzo[b][1,4]dioxin-5-yl)-7H-pyrrolo[2,3-d] pyrimidine-2,4-diamine]
100 to 1000 nM	200 to 1000 nM	100 to 1000 nM	COc1cc(-c2ccnn2C)ccc1Nc1nc(C2=CCCCC2)c2c(C#N)c[nH]c2n1 [Example 129, 4-(cyclohex-1-en-1-yl)-2-((2-methoxy-4-(1-methyl-1H-pyrazol-5-yl)phenyl)amino)-7H-pyrrolo[2,3-d] pyrimidine-5-carbonitrile]
100 to 1000 nM	50 to 200 nM	100 to 1000 nM	COc1cc(-c2ccnn2C)ccc1Nc1nc(NC2CCCC2)c2c(C(F)(F)F)c[nH]c2n1 [Example 132, N^4-cyclopentyl-N^2-(2-methoxy-4-(1-methyl-1H-pyrazol-5-yl)phenyl)-5-(trifluoromethyl)-7H-pyrrolo[2,3-d] pyrimidine-2,4-diamine]
100 to 1000 nM	200 to 1000 nM	100 to 1000 nM	Cn1nccc1-c1ccc(Nc2nc(NC3CCCC3)c3c(C(F)(F)F)c[nH]c3n2)c2c1OCCO2 [Example 133, N^4-cyclopentyl-N^2-(8-(1-methyl-1H-pyrazol-5-yl)-2,3-dihydrobenzo[b][1,4]dioxin-5-yl)-5-(trifluoromethyl)-7H-pyrrolo[2,3-d] pyrimidine-2,4-diamine]
< 100 nM	50 to 200 nM	< 100 nM	COc1cc(Nc2nc(NC3CCCC3)c3c(C#N)c[nH]c3n2)ccc1-c1cnn(C)c1 [Example 136, 4-(cyclopentylamino)-2-((3-methoxy-4-(1-methyl-1H-pyrazol-4-yl)phenyl)amino)-7H-pyrrolo[2,3-d] pyrimidine-5-carbonitrile]
< 100 nM	< 50 nM	< 100 nM	COc1cc(Nc2nc(NC3CCOCC3)c3c(C#N)c[nH]c3n2)ccc1-c1c(C)noc1C [Example 138]
< 100 nM	< 50 nM	< 100 nM	COc1cc(-c2cccc(O)c2)ccc1Nc1nc(NC2CCOCC2)c2c(C#N)c[nH]c2n1 [Example 141, 2-((3′-hydroxy-3-methoxy-[1,1′-biphenyl]-4-yl)amino)-4-((tetrahydro-2H-pyran-4-yl)amino)-7H-pyrrolo[2,3-d] pyrimidine-5-carbonitrile]
< 100 nM	< 50 nM	< 100 nM	COc1cc(-c2nncn2C)ccc1Nc1nc(NC2CCOC(C)(C)C2)c2c(C#N)c[nH]c2n1 (stereo not drawn) [Example 143, 4-((2,2-dimethyltetrahydro-2H-pyran-4-yl)amino)-2-((2-methoxy-4-(4-methyl-4H-1,2,4-triazol-3-yl)phenyl)amino)-7H-pyrrolo[2,3-d] pyrimidine-5-carbonitrile]
< 100 nM	< 50 nM	< 100 nM	COc1cc(-c2cnn(C)c2)ccc1Nc1nc(NC2CCOC(C)(C)C2)c2c(C#N)c[nH]c2n1 (stereo not drawn) [Example 144, 4-((2,2-dimethyltetrahydro-2H-pyran-4-yl)amino)-2-((2-methoxy-4-(1-methyl-1H-pyrazol-4-yl)phenyl)amino)-7H-pyrrolo[2,3-d] pyrimidine-5-carbonitrile]
< 100 nM	< 50 nM	< 100 nM	COc1cc(-c2c(C)noc2C)ccc1Nc1nc(NC2C[C@H]3CC[C@@H]2C3)c2c(C#N)c[nH]c2n1 (stereo partly drawn) [Example 146, 4-(((1R,4S)-bicyclo[2.2.1]heptan-2-yl)amino)-2-((4-(3,5-dimethylisoxazol-4-yl)-2-methoxyphenyl)amino)-7H-pyrrolo[2,3-d] pyrimidine-5-carbonitrile]
